Assay type in all cases: in vivo
One assay relates to Helicoverpa armigera. The assay is described as follows: Pesticidal test against Helicoverpa armigera (cabbage leaf disk dip). Conditions: foliar, 72 h, concentration 1 ppm, 2-stage larvae, examined after 3 days, 25° C., read-out: pesticidal rate. The method in brief: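 Cabbage leaf disks were dipped for 30 s in test solution at a set concentration and air-dried. Second-instar larvae were placed one per hole and held at 25 °C, with live and dead counts taken after 3 days. Five larvae per group were tested in two replicates.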

The test system of the next assay is Laodelphax striatellus. The experiment in a line: Pesticidal test against Laodelphax striatellus (rice seedling spray). Conditions: 144 h, concentration 100 ppm, 3-stage larvae, examined after 6 days, 25° C., read-out: pesticidal rate. The method in brief:
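Rice seedlings sprayed with 2.5 ml acetone solution of compound at a predetermined concentration, air-dried, then infested with third-stage Laodelphax striatellus larvae in capped water-containing tubes at 25 °C. Living and dead insects counted after 6 days; ten larvae per group, two replicates.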

Another assay concerns Musca domestica. The experiment in a line: Pesticidal test against Musca domestica (petri dish dry film). The conditions noted are these: 24 h, concentration 100 ppm, female adults, examined after 1 day, 25° C., read-out: pesticidal rate. The method in brief: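 Dry film from 1 ml acetone solution of compound at a predetermined concentration, air-dried in a 9 cm petri dish; female adult flies released and dish capped. Held at 25° C; living and dead counted after 1 day. Five insects per group, two replicates.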

In another assay the test system is Ctenocephalides Felis. The assay is described as follows: Insecticidal test for Ctenocephalides felis, Test Example 1 (dry film in glass tube, 0.5 ml, Table A4). The conditions noted are these: adults.

Turning to `CN(C(=O)c1ccc(F)cc1)c1cccc(C(=O)Nc2c(I)cc(C(F)(C(F)(F)F)C(F)(F)F)cc2C(F)(F)F)c1F` [7-1733, 2-fluoro-3-(4-fluoro-N-methylbenzamide)-N-(2-iodo-4-(perfluoropropan-2-yl)-6-(trifluoromethyl)phenyl)benzamide], in the assay on Helicoverpa armigera, the pest or weed control at 1 ppm was not below 70%. The pest or weed control at 100 ppm with Laodelphax striatellus and with Musca domestica was not below 70% in each case.
Turning to `CN(C(=O)c1ccccc1)c1cccc(C(=O)Nc2c(Br)cc(C(F)(C(F)(F)F)C(F)(F)F)cc2C(F)(F)F)c1F` [7-1574, N-(2-bromo-4-(perfluoropropan-2-yl)-6-(trifluoromethyl)phenyl)-2-fluoro-3-(N-methylbenzamide)benzamide], the pest or weed control at 1 ppm with Helicoverpa armigera was not below 70%. In addition, in the assay with Ctenocephalides Felis, the “effect in the examination after 12 hours of the exposure” value is “effective”. The pest or weed control at 100 ppm in the assay with Laodelphax striatellus and with Musca domestica was not below 70% in each case.

The values above are taken from patent publication US8686044B2, “Amide derivative, pest control agent containing the amide derivative, and use of the amide derivative” (Mitsui Chemicals Agro, Inc., priority 2008, dated 2014).
